Experimental data reported in US20160145242A1, “PHENYLIMIDAZOLE DERIVATIVE, AND THERAPEUTIC MEDICINE OR PREVENTIVE MEDICINE FOR INFLAMMATORY DISEASE, ETC” (NIPPON SODA CO., LTD., priority 2013, published 2016).
Read-outs that look alike come from different tables or passages of the source.

Columns and labels:
[1] = target: T1, CYP3A4 (Homo sapiens, UniProt P08684); assay: Cytochrome P450 inhibitory action, CYP3A4 in human liver microsomes; assay type: in vitro ADME; details: for inhibition at 10 min, 10 µM: pooled human liver microsomes, read-out: inhibition rate in the shown concentration
T1 construct: Using human liver microsomes pooled as an enzyme source; from tissue; host or cells: pooled human liver microsomes
Method: An inhibitory action of the compound of the present invention with respect to CYP2D6 (dextromethorphan was used as a substrate) and CYP3A4 (midazolam and testosterone were used as substrates) which are isozymes of cytochrome P450 (hereinafter, referred to as “CYP”) serving as a major drug-metabolizing enzyme was examined using human liver microsomes.
Using human liver microsomes pooled as an enzyme source, 1.3 mM NADP as a coenzyme, 3.3 mM D-glucose-6-phosphate, and 0.4 U/mL D-glucose-6-phosphate dehydrogenase, the corresponding substrate ([…] dextromethorphan for CYP2D6, 5 μM midazolam or 50 µM testosterone for CYP3A4) and the compound of the present invention were added such that the final concentration became 0.1, 1, 10 μM and then incubated at 37° C. for 10 minutes. The inhibition rate (%) of the compound of the present invention in each concentration was calculated by quantifying metabolites (CYP2D6; dextrorphan, CYP3A4; 1-hydroxymidazolam or 6β hydroxytestosterone) using HPLC-MS/MS and setting the value of the activity of an enzyme when drug was not incorporated therein as 100%. 50% inhibitory concentration IC50 (μM) was calculated by drawing a straight line between the concentration where the inhibition rate exceeds 50% and the concentration where the inhibition rate is less than 50% in a graph showing a relationship between the inhibition rate and the concentration and interpolating the concentration that becomes 50% inhibition.

[2] = tested on: mouse model of retinal light disorders; assay: Retinal light disorder model test (ONL thickness); assay type: in vivo; details: BALB/cCr male mouse, 30 mg/kg oral 30 minutes before 2 hours white light, eyes taken after 4 days
Method: (Retinal Light Disorder Model Test)
The usefulness (improvement rate with respect to retinal light disorders) of the compound of the invention was evaluated using a mouse model of retinal light disorders, generally used as a model of retinal light disorders, (Investigative Ophthalmology & Visual Science, 2002; vol. 43; pp. 1162 to 1167). Here, the improvement rate with respect to the retinal light disorders was calculated based on the thickness of an outer nuclear layer (hereinafter, referred to as “ONL”), which is strongly interfered especially by light application among a retinal cell layers, in a tissue specimen of a perpendicular surface of an eyeball.
Moreover, in the present test, the ONL of a light application group to which only a base was administered was degraded to 30% to 50% of a normal light group.
A test compound was dissolved or suspended in a solvent (1% (w/v) methyl cellulose aqueous solution) and then an administration liquid was prepared so that the test compound to be 30 mg/kg body weight. The dose was set to 10 ml/kg body weight.
A 5-week-old BALB/cCr-based male mouse (weight of approximately 20 g) was bred in a dark place for 48 hours. Subsequently, the test compound administration liquid was orally administered (30 mg/kg). After 30 minutes, […] of white light was continuously applied to the mouse for 2 hours. Next, the mouse was bred in a breeding room with 50 lux of light for 4 days.
An anesthetic (secobarbital sodium) was intraperitoneally administered to anesthetize the mouse and then the mouse was exsanguinated to die. The top portion of the right eyeball was marked with a thread and the eyeball was extracted. […]
The ONL thickness in the tissue specimen was measured for every 200 μm between the optic nerve papilla to where upwardly spaced by 1 mm from the optic nerve papilla using Lumina Vision. The area (AUC) from the optic nerve papilla to where upwardly spaced by 1 mm from the optic papilla in the graph was calculated as an ONL area. […]

[3] = target: T2, human platelet-derived thromboxane synthase (Homo sapiens, UniProt P24557); assay: Thromboxane synthase activity inhibitory action; assay type: biochemical; details: read-out: thromboxane synthase activity inhibition rate
T2 construct: host or cells: human recombinant cells (so in the source); platelets
T2 sequence (P24557 1-533): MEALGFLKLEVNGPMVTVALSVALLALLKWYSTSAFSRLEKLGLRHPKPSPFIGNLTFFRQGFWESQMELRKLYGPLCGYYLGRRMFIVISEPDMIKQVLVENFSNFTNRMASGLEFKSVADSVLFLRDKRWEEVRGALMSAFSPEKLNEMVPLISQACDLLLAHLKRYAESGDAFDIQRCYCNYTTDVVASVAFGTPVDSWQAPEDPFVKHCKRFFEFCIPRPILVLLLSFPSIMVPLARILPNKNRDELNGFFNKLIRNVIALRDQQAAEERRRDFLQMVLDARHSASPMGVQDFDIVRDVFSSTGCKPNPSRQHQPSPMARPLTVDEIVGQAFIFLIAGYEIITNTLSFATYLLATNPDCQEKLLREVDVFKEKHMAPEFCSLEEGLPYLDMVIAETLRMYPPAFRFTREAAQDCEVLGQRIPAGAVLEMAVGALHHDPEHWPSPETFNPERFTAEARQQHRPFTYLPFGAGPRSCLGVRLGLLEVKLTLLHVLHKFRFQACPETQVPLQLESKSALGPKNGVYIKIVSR
Method: The inhibitory action of the compound according to the present invention with respect to the activity of the present enzyme was examined using human platelet-derived thromboxane synthase.
Thromboxane synthase of human recombinant cells was reacted with 2.10 μM of prostaglandin H2 and the amount of thromboxane B2 which was a reaction product was measured by an enzyme-linked immunosorbent assay. 3 μM of the compound according to the present invention dissolved in dimethyl sulfoxide was added to the reaction system and the inhibition rate of thromboxane B2 generation (thromboxane synthase activity inhibition rate) was measured.

T1 sequence (P08684 whole entry): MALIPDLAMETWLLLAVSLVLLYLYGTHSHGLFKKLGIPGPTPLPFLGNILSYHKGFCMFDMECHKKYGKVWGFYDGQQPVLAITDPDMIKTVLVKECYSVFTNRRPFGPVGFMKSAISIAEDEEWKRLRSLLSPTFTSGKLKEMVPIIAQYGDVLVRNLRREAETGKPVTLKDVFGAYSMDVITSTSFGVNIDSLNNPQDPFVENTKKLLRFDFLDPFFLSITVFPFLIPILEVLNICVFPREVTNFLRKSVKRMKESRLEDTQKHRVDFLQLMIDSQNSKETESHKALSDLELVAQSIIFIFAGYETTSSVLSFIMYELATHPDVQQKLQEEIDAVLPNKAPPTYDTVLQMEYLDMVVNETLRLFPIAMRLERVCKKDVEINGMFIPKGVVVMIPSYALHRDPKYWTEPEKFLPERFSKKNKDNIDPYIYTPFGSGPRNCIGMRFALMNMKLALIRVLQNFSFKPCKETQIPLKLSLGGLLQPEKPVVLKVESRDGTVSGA

CC(=O)N1CCN(c2ccc(N)c(-n3ccnc3)c2)CC1 [Compound 1-1, 4-acetyl-1-(4-amino-3-imidazole-1-yl-phenyl)piperazine] was tested, and the inhibition at 10 min, 10 µM ([1]; probe midazolam (5 μM), substrate midazolam) was 28%, the inhibition at 10 min, 10 µM ([1]; probe testosterone (50 M [sic]), substrate testosterone) was 6% and the IC50 ([1]; substrate midazolam) was > 10 µM. The IC50 ([1]; substrate testosterone) was > 10 µM, the “ONL thickness improvement rate” value [2] was 100.6% and the inhibition at 3 µM [3] was 32%.
